Laboratory results published in PubChem BioAssay AID2060906 (Molecular Pharmacology Branch, DTP, NCI, 2025).

System: 485176-168-R4-J1-PDC complex spheroid growth
Test: Anticancer human tumor 485176-168-R4-J1-PDC patient-derived pancreatic adenocarcinoma cell line growth inhibition [RAS]
Conditions: for IC50: curve of first compound; for viability, T/C: stronger effect = lower value
Procedure, shortened: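 Tumour cells grown as complex spheroids with HUVEC endothelial cells and mesenchymal stem cells, treated with RAS pathway inhibitor combinations. Each agent spans half-log steps from near clinical Cmax, or 10 microM where Cmax is unknown.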

[1] = second compound 0.000949 µM, first compound 0.000949 µM
[2] = second compound 0.000949 µM, first compound 0.003 µM
[3] = second compound 0.000949 µM, first compound 0.00949 µM
[4] = second compound 0.000949 µM, first compound 0.03 µM
[5] = second compound 0.000949 µM, first compound 0.0949 µM
[6] = second compound 0.000949 µM, first compound 0.3 µM
[7] = second compound 0.003 µM, first compound 0.000949 µM
[8] = second compound 0.003 µM, first compound 0.003 µM
[9] = second compound 0.003 µM, first compound 0.00949 µM
[10] = second compound 0.003 µM, first compound 0.03 µM
[11] = second compound 0.003 µM, first compound 0.0949 µM
[12] = second compound 0.003 µM, first compound 0.3 µM
[13] = second compound 0.00949 µM, first compound 0.000949 µM
[14] = second compound 0.00949 µM, first compound 0.003 µM
[15] = second compound 0.00949 µM, first compound 0.00949 µM
[16] = second compound 0.00949 µM, first compound 0.03 µM
[17] = second compound 0.00949 µM, first compound 0.0949 µM
[18] = second compound 0.00949 µM, first compound 0.3 µM
[19] = second compound 0.03 µM, first compound 0.000949 µM
[20] = second compound 0.03 µM, first compound 0.003 µM
[21] = second compound 0.03 µM, first compound 0.00949 µM
[22] = second compound 0.03 µM, first compound 0.03 µM
[23] = second compound 0.03 µM, first compound 0.0949 µM
[24] = second compound 0.03 µM, first compound 0.3 µM
[25] = second compound 0.0949 µM, first compound 0.000949 µM
[26] = second compound 0.0949 µM, first compound 0.003 µM
[27] = second compound 0.0949 µM, first compound 0.00949 µM
[28] = second compound 0.0949 µM, first compound 0.03 µM
[29] = second compound 0.0949 µM, first compound 0.0949 µM
[30] = second compound 0.0949 µM, first compound 0.3 µM
[31] = second compound 0.3 µM, first compound 0.000949 µM
[32] = second compound 0.3 µM, first compound 0.003 µM
[33] = second compound 0.3 µM, first compound 0.00949 µM
[34] = second compound 0.3 µM, first compound 0.03 µM
[35] = second compound 0.3 µM, first compound 0.0949 µM
[36] = second compound 0.3 µM, first compound 0.3 µM
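Also: spheroids exposed to compounds for seven days before readout.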
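For viability, T/C in this document: luminescence viability expressed relative to DMSO vehicle wells set as 100%.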

C=CC(=O)N1CCN(c2nc(OCC3CCCN3C)nc3c(F)c(-c4nc(N)cc(C)c4C(F)(F)F)c(Cl)cc23)C(C)C1 (stereo unspecified) + CCn1c(-c2cccnc2C(C)OC)c2c3cc(ccc31)N1CCOC(CC(NC(=O)C(C(C)C)N(C)C(=O)C3(F)CCN(C(=O)C#CC(C)(C)N(C)C)CC3)C(=O)N3CCCC(N3)C(=O)OCC(C)(C)C2)C1
IC50 (second compound 0.000949 µM): > 1000 nM
IC50 (second compound 0.003 µM): > 1000 nM
IC50 (second compound 0.00949 µM): > 1000 nM
IC50 (second compound 0.03 µM): > 1000 nM
IC50 (second compound 0.0949 µM): > 1000 nM
IC50 (second compound 0.3 µM): > 1000 nM
viability, T/C (second compound 0.000949 µM, first compound 0.00316 µM): 109%
viability, T/C (second compound 0.000949 µM, first compound 0.01 µM): 90.2%
viability, T/C (second compound 0.000949 µM, first compound 0.0316 µM): 108%
viability, T/C (second compound 0.000949 µM, first compound 0.1 µM): 88.8%
viability, T/C (second compound 0.000949 µM, first compound 0.316 µM): 113%
viability, T/C (second compound 0.000949 µM, first compound 1 µM): 89.4%
viability, T/C (second compound 0.003 µM, first compound 0.00316 µM): 94.2%
viability, T/C (second compound 0.003 µM, first compound 0.01 µM): 94.5%
viability, T/C (second compound 0.003 µM, first compound 0.0316 µM): 96.2%
viability, T/C (second compound 0.003 µM, first compound 0.1 µM): 93.4%
viability, T/C (second compound 0.003 µM, first compound 0.316 µM): 115%
viability, T/C (second compound 0.003 µM, first compound 1 µM): 105%
viability, T/C (second compound 0.00949 µM, first compound 0.00316 µM): 92.2%
viability, T/C (second compound 0.00949 µM, first compound 0.01 µM): 93.6%
viability, T/C (second compound 0.00949 µM, first compound 0.0316 µM): 96.9%
viability, T/C (second compound 0.00949 µM, first compound 0.1 µM): 94.4%
viability, T/C (second compound 0.00949 µM, first compound 0.316 µM): 105%
viability, T/C (second compound 0.00949 µM, first compound 1 µM): 108%
viability, T/C (second compound 0.03 µM, first compound 0.00316 µM): 98.5%
viability, T/C (second compound 0.03 µM, first compound 0.01 µM): 105%
viability, T/C (second compound 0.03 µM, first compound 0.0316 µM): 101%
viability, T/C (second compound 0.03 µM, first compound 0.1 µM): 111%
viability, T/C (second compound 0.03 µM, first compound 0.316 µM): 117%
viability, T/C (second compound 0.03 µM, first compound 1 µM): 85.8%
viability, T/C (second compound 0.0949 µM, first compound 0.00316 µM): 88.2%
viability, T/C (second compound 0.0949 µM, first compound 0.01 µM): 83.7%
viability, T/C (second compound 0.0949 µM, first compound 0.0316 µM): 101%
viability, T/C (second compound 0.0949 µM, first compound 0.1 µM): 95.1%
viability, T/C (second compound 0.0949 µM, first compound 0.316 µM): 115%
viability, T/C (second compound 0.0949 µM, first compound 1 µM): 92.2%
viability, T/C (second compound 0.3 µM, first compound 0.00316 µM): 74.2%
viability, T/C (second compound 0.3 µM, first compound 0.01 µM): 74.1%
viability, T/C (second compound 0.3 µM, first compound 0.0316 µM): 79.6%
viability, T/C (second compound 0.3 µM, first compound 0.1 µM): 82%
viability, T/C (second compound 0.3 µM, first compound 0.316 µM): 94.4%
viability, T/C (second compound 0.3 µM, first compound 1 µM): 80.8%

CC1(C)CCC(Nc2ncc(C(F)(F)F)c(-c3c[nH]c4c(P(C)(C)=O)c(C#N)ccc34)n2)CN1 (stereo unspecified) + CCn1c(-c2cccnc2C(C)OC)c2c3cc(ccc31)N1CCOC(CC(NC(=O)C(C(C)C)N(C)C(=O)C3(F)CCN(C(=O)C#CC(C)(C)N(C)C)CC3)C(=O)N3CCCC(N3)C(=O)OCC(C)(C)C2)C1
IC50 (second compound 0.000949 µM): > 300 nM
IC50 (second compound 0.003 µM): > 300 nM
IC50 (second compound 0.00949 µM): 66.8 nM
IC50 (second compound 0.03 µM): 26.5 nM
IC50 (second compound 0.0949 µM): 20.8 nM
IC50 (second compound 0.3 µM): 13.2 nM
viability, T/C [1]: 91.9%
viability, T/C [2]: 93.3%
viability, T/C [3]: 86.8%
viability, T/C [4]: 59.5%
viability, T/C [5]: 52.8%
viability, T/C [6]: 54.1%
viability, T/C [7]: 99.1%
viability, T/C [8]: 90.7%
viability, T/C [9]: 87.5%
viability, T/C [10]: 58.3%
viability, T/C [11]: 54.5%
viability, T/C [12]: 51.7%
viability, T/C [13]: 97.6%
viability, T/C [14]: 91%
viability, T/C [15]: 82.2%
viability, T/C [16]: 54.1%
viability, T/C [17]: 50.5%
viability, T/C [18]: 44.9%
viability, T/C [19]: 89.4%
viability, T/C [20]: 112%
viability, T/C [21]: 73.5%
viability, T/C [22]: 54.5%
viability, T/C [23]: 39%
viability, T/C [24]: 47.9%
viability, T/C [25]: 77.9%
viability, T/C [26]: 87.1%
viability, T/C [27]: 67.7%
viability, T/C [28]: 42.2%
viability, T/C [29]: 34.6%
viability, T/C [30]: 34.1%
viability, T/C [31]: 81.9%
viability, T/C [32]: 69.1%
viability, T/C [33]: 58.7%
viability, T/C [34]: 34%
viability, T/C [35]: 26.8%
viability, T/C [36]: 30.5%

CCc1c2c(nc3ccc(O)cc13)-c1cc3c(c(=O)n1C2)COC(=O)[C@]3(O)CC + CCn1c(-c2cccnc2C(C)OC)c2c3cc(ccc31)N1CCOC(CC(NC(=O)C(C(C)C)N(C)C(=O)C3(F)CCN(C(=O)C#CC(C)(C)N(C)C)CC3)C(=O)N3CCCC(N3)C(=O)OCC(C)(C)C2)C1
IC50 (second compound 0.000949 µM): 12.7 nM
IC50 (second compound 0.003 µM): 8.73 nM
IC50 (second compound 0.00949 µM): 15 nM
IC50 (second compound 0.03 µM): 12.5 nM
IC50 (second compound 0.0949 µM): 6.74 nM
IC50 (second compound 0.3 µM): 7.31 nM
viability, T/C [1]: 89%
viability, T/C [2]: 84.4%
viability, T/C [3]: 56%
viability, T/C [4]: 27.5%
viability, T/C [5]: 12.2%
viability, T/C [6]: 5.05%
viability, T/C [7]: 92.2%
viability, T/C [8]: 84.3%
viability, T/C [9]: 43%
viability, T/C [10]: 25.8%
viability, T/C [11]: 10.7%
viability, T/C [12]: 7.84%
viability, T/C [13]: 89.5%
viability, T/C [14]: 96.3%
viability, T/C [15]: 63.1%
viability, T/C [16]: 27.6%
viability, T/C [17]: 10.5%
viability, T/C [18]: 7.04%
viability, T/C [19]: 96.3%
viability, T/C [20]: 94.1%
viability, T/C [21]: 52.5%
viability, T/C [22]: 29.2%
viability, T/C [23]: 10.9%
viability, T/C [24]: 4.84%
viability, T/C [25]: 91.5%
viability, T/C [26]: 67.8%
viability, T/C [27]: 43.4%
viability, T/C [28]: 19.7%
viability, T/C [29]: 5.98%
viability, T/C [30]: 3.35%
viability, T/C [31]: 68.7%
viability, T/C [32]: 64.1%
viability, T/C [33]: 45.9%
viability, T/C [34]: 10.6%
viability, T/C [35]: 4.63%
viability, T/C [36]: 2.53%
